Laboratory results: US20250177383A1, “DI-CYCLOPROPYL BASED IL-17A MODULATORS AND USES THEREOF” (DICE ALPHA, INC., priority 2022, published 2025)
Where two headings read alike, the source gives them in different places. Each block holds one molecule with its values, some of them ahead of it.

Legend:
IL-17A/F = target: T1, IL-17A/F (Homo sapiens, UniProt Q16552+Q96PD4); experiment: IL-17A/F HEK-Blue Cell Assay; type: cell-based; details: HEK-Blue IL-17 reporter cells, IL-17A/F stimulation, 20 hours, SEAP readout; read-out: IL17AF HEK Blue pIC50 (converted)
T1 sequence (Q16552 24-155): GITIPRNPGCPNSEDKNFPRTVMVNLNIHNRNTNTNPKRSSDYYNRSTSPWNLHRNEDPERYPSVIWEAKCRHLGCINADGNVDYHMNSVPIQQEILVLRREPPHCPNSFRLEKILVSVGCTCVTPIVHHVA
T1 sequence (Q96PD4 31-163): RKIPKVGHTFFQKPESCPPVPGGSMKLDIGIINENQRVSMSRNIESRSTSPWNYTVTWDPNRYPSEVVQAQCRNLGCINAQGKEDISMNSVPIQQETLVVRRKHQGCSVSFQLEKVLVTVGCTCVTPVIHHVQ
Procedure: (§1) The HEK-Blue IL-17 reporter cell line (Fisher #NC1408637) was used for cell-based IL-17A/F inhibition assays. Cells were grown and prepared for assays according to the manufacturer's instructions. This cell line consists of HEK 293 cells that were designed to expressed IL-17RA, IL-17R^C, and the ActI adapter molecule, the combination of which, when stimulated by IL-17A/A activates a NFκB promoter and drives expression of a recombinant Secreted Alkaline Phosphatase (SEAP) geneprotein. Media from the cells is then added to a development reagent (Quanti-Blue Substrate, Fisher #NC9711613), and read at A630.
(§2) Compounds were titrated in DMSO and added to the cells immediately before adding IL-17A/A (Custom from R&D systems, untagged IL-17A/F+BSA as a carrier protein). The cells, compound, and IL-17A/A were then incubated for 20 hours before media was removed for SEAP analysis. The resulting inhibition curve was then analyzed using a Dotmatics screening protocol, and IC50 values were determined using a 4-parameter nonlinear fit. DMSO was added to a universal final concentration of 0.1% to optimize background.

IL-17A/A = target: T2, IL-17A/A (Homo sapiens, UniProt Q16552); experiment: IL-17A/A HEK-Blue Cell Assay; type: cell-based; details: IL-17A/A stimulation, 20 hours, SEAP readout
T2 sequence (Q16552 24-155): T1 sequence (Q16552 24-155)
Procedure: as §1, with “IL-17A/A” for “IL-17A/F”, “IL-17R^A,” for “IL-17RA,”, “protein.” for “geneprotein.”
as §2, with “in DMSO, with a top final compound concentration of 10 uM” for “in DMSO”, “IL-17A/A (Genscript #Z03228).” for “IL-17A/A (Custom from R&D systems, untagged IL-17A/F+BSA as a carrier protein).”, “background. IL-17A/A inhibition data is provided in Table 1 for selected compounds.” for “background.”

[1] = HEK-Blue IL-17 reporter cells, read-out: IL17 AA HEK-5 pIC50 (converted)

SMILES: CCc1nonc1C(=O)N[C@H](C(=O)Nc1ccc([C@H](C)[C@@H](NC(=O)CF)C(=O)N2CCNC(CF)C2)cc1F)C(C1CC1)C1CC1 (single isomer, unassigned) [Compound 302]
IC50 (IL-17A/F): 100 to 10000 nM
IC50 (IL-17A/A; IL17 AA HEK-5 pIC50, HEK-Blue IL-17 reporter cells): 10 to 100 nM

SMILES: CCC(=O)N[C@@H](C(=O)N1C[C@@H]2C[C@H]1CN2C)[C@@H](C)c1ccc(NC(=O)[C@@H](NC(=O)c2ccnn2CC)C(C2CC2)C2CC2)c(F)c1 [Compound 235]
IC50 (IL-17A/A; [1]): 10 to 100 nM

SMILES: CCC(=O)N[C@@H](C(=O)N1C[C@H]2C[C@@H]1CN2C)[C@@H](C)c1ccc(NC(=O)[C@@H](NC(=O)c2ccnn2CC)C(C2CC2)C2CC2)c(F)c1 [Compound 236]
IC50 (IL-17A/A; [1]): 10 to 100 nM

SMILES: CCC(=O)N[C@@H](C(=O)N1C[C@H]2CN(C)C[C@H]2C1)[C@@H](C)c1ccc(NC(=O)[C@@H](NC(=O)c2ccnn2CC)C(C2CC2)C2CC2)c(F)c1 [Compound 237]
IC50 (IL-17A/A; [1]): 100 to 10000 nM

SMILES: CCC(=O)N[C@@H](C(=O)N1CC2(CN(C)C2)C1)[C@@H](C)c1ccc(NC(=O)[C@@H](NC(=O)c2ccnn2CC)C(C2CC2)C2CC2)c(F)c1 [Compound 238]
IC50 (IL-17A/A; [1]): 100 to 10000 nM

SMILES: CCC(=O)N[C@@H](C(=O)N1C[C@H]2CC[C@@H](C1)N2C)[C@@H](C)c1ccc(NC(=O)[C@@H](NC(=O)c2ccnn2CC)C(C2CC2)C2CC2)c(F)c1 [Compound 239]
IC50 (IL-17A/A; [1]): < 10 nM

SMILES: CCC(=O)N[C@@H](C(=O)N1CC[C@H](N(C)C)C1)[C@@H](C)c1ccc(NC(=O)[C@@H](NC(=O)c2ccnn2CC)C(C2CC2)C2CC2)c(F)c1 [Compound 240]
IC50 (IL-17A/A; [1]): 10 to 100 nM

SMILES: CCC(=O)N[C@@H](C(=O)N1C[C@H]2C[C@@H](C1)N2C)[C@@H](C)c1ccc(NC(=O)[C@@H](NC(=O)c2ccnn2CC)C(C2CC2)C2CC2)c(F)c1 [Compound 241]
IC50 (IL-17A/A; [1]): 10 to 100 nM

SMILES: CCC(=O)N[C@@H](C(=O)N1CC[C@@H](N(C)C)C1)[C@@H](C)c1ccc(NC(=O)[C@@H](NC(=O)c2ccnn2CC)C(C2CC2)C2CC2)c(F)c1 [Compound 242]
IC50 (IL-17A/A; [1]): 10 to 100 nM

SMILES: CCC(=O)N[C@@H](C(=O)N1CCN(C)CC1)[C@@H](C)c1ccc(NC(=O)[C@@H](NC(=O)c2ccnn2CCO)C(C2CC2)C2CC2)c(F)c1 [Compound 243]
IC50 (IL-17A/A; [1]): 100 to 10000 nM

SMILES: CCC(=O)N[C@@H](C(=O)N1CCN(C)[C@H](C)C1)[C@@H](C)c1ccc(NC(=O)[C@@H](NC(=O)c2ccnn2CCO)C(C2CC2)C2CC2)c(F)c1 [Compound 244]
IC50 (IL-17A/A; [1]): 100 to 10000 nM

SMILES: CCC(=O)N[C@@H](C(=O)N1CCN(C)CC1)[C@@H](C)c1ccc(NC(=O)[C@@H](NC(=O)c2ccnn2C)C(C2CC2)C2CC2)c(F)c1 [Compound 247]
IC50 (IL-17A/A; [1]): 10 to 100 nM

SMILES: CCC(=O)N[C@@H](C(=O)N1CCN(C)[C@H](C)C1)[C@@H](C)c1ccc(NC(=O)[C@@H](NC(=O)c2ccnn2CC(F)(F)F)C(C2CC2)C2CC2)c(F)c1 [Compound 248]
IC50 (IL-17A/A; [1]): 10 to 100 nM

SMILES: CCC(=O)N[C@@H](C(=O)N1CCN(C)CC1)[C@@H](C)c1ccc(NC(=O)[C@@H](NC(=O)c2ccnn2CC(F)(F)F)C(C2CC2)C2CC2)c(F)c1 [Compound 249]
IC50 (IL-17A/A; [1]): 10 to 100 nM

SMILES: CCC(=O)N[C@@H](C(=O)N1CCC(C)(O)CC1)[C@@H](C)c1ccc(NC(=O)[C@@H](NC(=O)c2ccnn2CCF)C(C2CC2)C2CC2)c(F)c1 [Compound 250]
IC50 (IL-17A/A; [1]): < 10 nM

SMILES: CCC(=O)N[C@@H](C(=O)N1CCOCC1)[C@@H](C)c1ccc(NC(=O)[C@@H](NC(=O)c2ccnn2CCF)C(C2CC2)C2CC2)c(F)c1 [Compound 251]
IC50 (IL-17A/A; [1]): 10 to 100 nM

SMILES: CO[C@@H](C)C(=O)N[C@@H](C(=O)N1C[C@H]2CC[C@@H](C1)N2C)[C@@H](C)c1ccc(NC(=O)[C@@H](NC(=O)c2ccnn2C(C)C)C(C2CC2)C2CC2)c(F)c1 [Compound 261]
IC50 (IL-17A/A; [1]): < 10 nM

Now from value to molecule:

IC50 (IL-17A/F): 10 to 100 nM
IC50 (IL-17A/A; [1]): < 10 nM
SMILES: CCn1nccc1C(=O)N[C@H](C(=O)Nc1ccc([C@H](C)[C@@H](NC(=O)[C@H](C)OC)C(=O)N2CCN(C)C(CF)C2)cc1F)C(C1CC1)C1CC1 (single isomer, unassigned) [Compound 299]

IC50 (IL-17A/F): 100 to 10000 nM
IC50 (IL-17A/A; [1]): 10 to 100 nM
SMILES: CO[C@@H](C)C(=O)N[C@@H](C(=O)N1CCNC(CF)C1)[C@@H](C)c1ccc(NC(=O)[C@@H](NC(=O)C2(F)CC2)C(C2CC2)C2CC2)c(F)c1 (single isomer, unassigned) [Compound 301]

IC50 (IL-17A/F): 100 to 10000 nM
IC50 (IL-17A/A; [1]): 10 to 100 nM
SMILES: CCn1nccc1C(=O)N[C@H](C(=O)Nc1ccc([C@H](C)[C@@H](NC(=O)[C@@H](C)F)C(=O)N2CCNC(CF)C2)cc1F)C(C1CC1)C1CC1 (single isomer, unassigned) [Compound 303]

IC50 (IL-17A/F): 100 to 10000 nM
IC50 (IL-17A/A; [1]): < 10 nM
SMILES: CCC(=O)N[C@@H](C(=O)N1CCNC(CF)C1)[C@@H](C)c1ccc(NC(=O)[C@@H](NC(=O)c2nonc2CC)C(C2CC2)C2CC2)c(F)c1 (single isomer, unassigned) [Compound 304]

IC50 (IL-17A/A; [1]): 10 to 100 nM
SMILES: CCC(=O)N[C@@H](C(=O)N1CCC(C)(O)CC1)[C@@H](C)c1ccc(NC(=O)[C@@H](NC(=O)c2ccnn2CCN2CCOCC2)C(C2CC2)C2CC2)c(F)c1 [Compound 252]

IC50 (IL-17A/A; [1]): 100 to 10000 nM
SMILES: CCC(=O)N[C@@H](C(=O)N1CCOCC1)[C@@H](C)c1ccc(NC(=O)[C@@H](NC(=O)c2ccnn2CCN2CCOCC2)C(C2CC2)C2CC2)c(F)c1 [Compound 253]

IC50 (IL-17A/A; [1]): < 10 nM
SMILES: CCn1nccc1C(=O)N[C@H](C(=O)Nc1ccc([C@H](C)[C@@H](NC(=O)[C@H](C)OC)C(=O)N2C[C@H]3CC[C@@H](C2)N3C)cc1F)C(C1CC1)C1CC1 [Compound 254]

IC50 (IL-17A/A; [1]): < 10 nM
SMILES: CCn1nccc1C(=O)N[C@H](C(=O)Nc1ccc([C@H](C)[C@@H](NC(=O)[C@H](C)OC)C(=O)N2CC[C@H](N(C)C)C2)cc1F)C(C1CC1)C1CC1 [Compound 255]

IC50 (IL-17A/A; [1]): 10 to 100 nM
SMILES: CCn1nccc1C(=O)N[C@H](C(=O)Nc1ccc([C@H](C)[C@@H](NC(=O)[C@H](C)OC)C(=O)N2C[C@H]3C[C@@H]2CN3C)cc1F)C(C1CC1)C1CC1 [Compound 256]

IC50 (IL-17A/A; [1]): < 10 nM
SMILES: CCC(=O)N[C@@H](C(=O)N1CCN(C)[C@H](C)C1)[C@@H](C)c1ccc(NC(=O)[C@@H](NC(=O)c2ccnn2C(C)C)C(C2CC2)C2CC2)c(F)c1 [Compound 258]

IC50 (IL-17A/A; [1]): < 10 nM
SMILES: CO[C@@H](C)C(=O)N[C@@H](C(=O)N1CCN(C)CC1)[C@@H](C)c1ccc(NC(=O)[C@@H](NC(=O)c2ccnn2C(C)C)C(C2CC2)C2CC2)c(F)c1 [Compound 259]

IC50 (IL-17A/A; [1]): < 10 nM
SMILES: CO[C@@H](C)C(=O)N[C@@H](C(=O)N1CCN(C)[C@H](C)C1)[C@@H](C)c1ccc(NC(=O)[C@@H](NC(=O)c2ccnn2C(C)C)C(C2CC2)C2CC2)c(F)c1 [Compound 260]

IC50 (IL-17A/A; [1]): < 10 nM
SMILES: CO[C@@H](C)C(=O)N[C@@H](C(=O)N1CC[C@H](N(C)C)C1)[C@@H](C)c1ccc(NC(=O)[C@@H](NC(=O)c2ccnn2C(C)C)C(C2CC2)C2CC2)c(F)c1 [Compound 262]

IC50 (IL-17A/A; [1]): 10 to 100 nM
SMILES: CO[C@@H](C)C(=O)N[C@@H](C(=O)N1C[C@H]2C[C@@H]1CN2C)[C@@H](C)c1ccc(NC(=O)[C@@H](NC(=O)c2ccnn2C(C)C)C(C2CC2)C2CC2)c(F)c1 [Compound 263]

IC50 (IL-17A/A; [1]): < 10 nM
SMILES: CCC(=O)N[C@@H](C(=O)N1C[C@H]2CC[C@@H](C1)N2C)[C@@H](C)c1ccc(NC(=O)[C@@H](NC(=O)c2ccnn2C(C)C)C(C2CC2)C2CC2)c(F)c1 [Compound 264]

IC50 (IL-17A/A; [1]): < 10 nM
SMILES: CCC(=O)N[C@@H](C(=O)N1CC[C@H](N(C)C)C1)[C@@H](C)c1ccc(NC(=O)[C@@H](NC(=O)c2ccnn2C(C)C)C(C2CC2)C2CC2)c(F)c1 [Compound 265]

IC50 (IL-17A/A; [1]): 10 to 100 nM
SMILES: CCC(=O)N[C@@H](C(=O)N1C[C@H]2C[C@@H]1CN2C)[C@@H](C)c1ccc(NC(=O)[C@@H](NC(=O)c2ccnn2C(C)C)C(C2CC2)C2CC2)c(F)c1 [Compound 266]

IC50 (IL-17A/A; [1]): 10 to 100 nM
SMILES: CCC(=O)N[C@@H](C(=O)N1CCC[C@@H](N)C1)[C@@H](C)c1ccc(NC(=O)[C@@H](NC(=O)c2ccnn2CC)C(C2CC2)C2CC2)c(F)c1 [Compound 268]

IC50 (IL-17A/A; [1]): 10 to 100 nM
SMILES: CO[C@@H](C)C(=O)N[C@@H](C(=O)N1CCN(C)CC1)[C@@H](C)c1ccc(NC(=O)[C@@H](NC(=O)C2(F)CC2)C(C2CC2)C2CC2)c(F)c1 [Compound 272]

IC50 (IL-17A/A; [1]): 10 to 100 nM
SMILES: CCOC(=O)N1CC[C@H]1C(=O)N[C@@H](C(=O)N1CCN(C)CC1)[C@@H](C)c1ccc(NC(=O)[C@@H](NC(=O)C2(F)CC2)C(C2CC2)C2CC2)c(F)c1 [Compound 274]
